# System: NCI-H46
# Test: Log of molar concentration leading to 50% cell death against non-small-cell lung cancer […] cell line was reported
# Type: functional
# Settings: Homo sapiens, read-out: Log LC50 (the source's name) (converted)
row,Structure (SMILES),CC50 [µM]
1,O=C(Nc1nccs1)c1cc2c(cc1Cl)Sc1nccn1S2(=O)=O,55

# System: EKVX
# Test: In vitro growth inhibition against non-small-cell lung cancer EKVX cell line was reported.
# Type: functional
# Settings: Homo sapiens
row,Structure (SMILES),GI50 [µM]
1,O=C(Nc1nccs1)c1cc2c(cc1Cl)Sc1nccn1S2(=O)=O,20.4

# System: RPMI-8226
# Test: Log of molar concentration leading to 50% cell death against leukemia […] cell line was reported
# Type: functional
# Settings: Homo sapiens, read-out: Log LC50 (the source's name) (converted)
row,Structure (SMILES),CC50 [µM]
1,O=C(Nc1nccs1)c1cc2c(cc1Cl)Sc1nccn1S2(=O)=O,57.5

# System: HCC 2998
# Test: In vitro growth inhibition against colon cancer HCC2998 cell line was reported.
# Type: functional
# Settings: Homo sapiens
row,Structure (SMILES),GI50 [µM]
1,O=C(Nc1nccs1)c1cc2c(cc1Cl)Sc1nccn1S2(=O)=O,15.8

# System: HL-60
# Test: Log of molar concentration leading to 50% cell death against leukemia HL-60(TB) cell line was reported
# Type: functional
# Settings: Homo sapiens, read-out: Log LC50 (the source's name) (converted)
row,Structure (SMILES),CC50 [µM]
1,O=C(Nc1nccs1)c1cc2c(cc1Cl)Sc1nccn1S2(=O)=O,70.8

# System: SK-MEL-28
# Test: Log of molar concentration leading to 50% cell death against melanoma SK-MEL-28 cell line was reported
# Type: functional
# Settings: Homo sapiens, read-out: Log LC50 (the source's name) (converted)
row,Structure (SMILES),CC50 [µM]
1,O=C(Nc1nccs1)c1cc2c(cc1Cl)Sc1nccn1S2(=O)=O,70.8

# System: SK-MEL-5
# Test: Log of molar concentration leading to 50% cell death against melanoma SK-MEL-5 cell line was reported
# Type: functional
# Settings: Homo sapiens, read-out: Log LC50 (the source's name) (converted)
row,Structure (SMILES),CC50 [µM]
1,O=C(Nc1nccs1)c1cc2c(cc1Cl)Sc1nccn1S2(=O)=O,55

# System: MCF7
# Test: Log of molar concentration leading to 50% cell death against breast cancer MCF 7 cell line was reported
# Type: functional
# Settings: Homo sapiens, read-out: Log LC50 (the source's name) (converted)
row,Structure (SMILES),CC50 [µM]
1,O=C(Nc1nccs1)c1cc2c(cc1Cl)Sc1nccn1S2(=O)=O,44.7

# System: CCRF-CEM
# Test: In vitro growth inhibition against leukemia CCRF-CEM cell line was reported.
# Type: functional
# Settings: Homo sapiens
row,Structure (SMILES),GI50 [µM]
1,O=C(Nc1nccs1)c1cc2c(cc1Cl)Sc1nccn1S2(=O)=O,5.01

# System: IGROV-1
# Test: Log of molar concentration leading to 50% cell death against ovarian cancer IGROV1 cell line was reported
# Type: functional
# Settings: Homo sapiens, read-out: Log LC50 (the source's name) (converted)
row,Structure (SMILES),CC50 [µM]
1,O=C(Nc1nccs1)c1cc2c(cc1Cl)Sc1nccn1S2(=O)=O,75.9

# System: COLO 205
# Test: In vitro growth inhibition against colon cancer COLO 205 cell line was reported.
# Type: functional
# Settings: Homo sapiens
row,Structure (SMILES),GI50 [µM]
1,O=C(Nc1nccs1)c1cc2c(cc1Cl)Sc1nccn1S2(=O)=O,17

# System: M14
# Test: In vitro total growth inhibition against melanoma M14 cell lines was reported.
# Type: functional
# Settings: Homo sapiens, read-out: Log TGI (converted)
row,Structure (SMILES),TGI [µM]
1,O=C(Nc1nccs1)c1cc2c(cc1Cl)Sc1nccn1S2(=O)=O,34.7

# System: CAKI-1
# Test: In vitro total growth inhibition against renal cancer CAKI-1cell lines was reported.
# Type: functional
# Settings: Homo sapiens, read-out: Log TGI (converted)
row,Structure (SMILES),TGI [µM]
1,O=C(Nc1nccs1)c1cc2c(cc1Cl)Sc1nccn1S2(=O)=O,37.2

# System: SF-295
# Test: Log of molar concentration leading to 50% cell death against CNS cancer SF-295 cell line was reported
# Type: functional
# Settings: Homo sapiens, read-out: Log LC50 (the source's name) (converted)
row,Structure (SMILES),CC50 [µM]
1,O=C(Nc1nccs1)c1cc2c(cc1Cl)Sc1nccn1S2(=O)=O,64.6

# System: MDA-MB-231
# Test: In vitro total growth inhibition against breast cancer MDA-MB-231/ATCC cell lines was reported.
# Type: functional
# Settings: Homo sapiens, read-out: Log TGI (converted)
row,Structure (SMILES),TGI [µM]
1,O=C(Nc1nccs1)c1cc2c(cc1Cl)Sc1nccn1S2(=O)=O,36.3

# System: SN12C
# Test: In vitro growth inhibition against renal cancer SN12C cell line was reported.
# Type: functional
# Settings: Homo sapiens
row,Structure (SMILES),GI50 [µM]
1,O=C(Nc1nccs1)c1cc2c(cc1Cl)Sc1nccn1S2(=O)=O,17

# System: DU-145
# Test: In vitro growth inhibition against prostate cancer […] cell line was reported.
# Type: functional
# Settings: Homo sapiens
row,Structure (SMILES),GI50 [µM]
1,O=C(Nc1nccs1)c1cc2c(cc1Cl)Sc1nccn1S2(=O)=O,16.2

# System: OVCAR-3
# Test: Log of molar concentration leading to 50% cell death against ovarian cancer OVCAR-3 cell line was reported
# Type: functional
# Settings: Homo sapiens, read-out: Log LC50 (the source's name) (converted)
row,Structure (SMILES),CC50 [µM]
1,O=C(Nc1nccs1)c1cc2c(cc1Cl)Sc1nccn1S2(=O)=O,53.7

# System: UACC-62
# Test: Log of molar concentration leading to 50% cell death against melanoma UACC-62 cell line was reported
# Type: functional
# Settings: Homo sapiens, read-out: Log LC50 (the source's name) (converted)
row,Structure (SMILES),CC50 [µM]
1,O=C(Nc1nccs1)c1cc2c(cc1Cl)Sc1nccn1S2(=O)=O,52.5

# System: SK-OV-3
# Test: In vitro growth inhibition against ovarian cancer SK-OV-3 cell line was reported.
# Type: functional
# Settings: Homo sapiens
row,Structure (SMILES),GI50 [µM]
1,O=C(Nc1nccs1)c1cc2c(cc1Cl)Sc1nccn1S2(=O)=O,24.5

# System: UO-31
# Test: In vitro total growth inhibition against renal cancer UO-31 cell lines was reported.
# Type: functional
# Settings: Homo sapiens, read-out: Log TGI (converted)
row,Structure (SMILES),TGI [µM]
1,O=C(Nc1nccs1)c1cc2c(cc1Cl)Sc1nccn1S2(=O)=O,14.8

# System: BT-549
# Test: In vitro growth inhibition against breast cancer BT 549 cell line was reported.
# Type: functional
# Settings: Homo sapiens
row,Structure (SMILES),GI50 [µM]
1,O=C(Nc1nccs1)c1cc2c(cc1Cl)Sc1nccn1S2(=O)=O,18.2

# System: COLO 205
# Test: Log of molar concentration leading to 50% cell death against colon cancer COLO 205 cell line was reported
# Type: functional
# Settings: Homo sapiens, read-out: Log LC50 (the source's name) (converted)
row,Structure (SMILES),CC50 [µM]
1,O=C(Nc1nccs1)c1cc2c(cc1Cl)Sc1nccn1S2(=O)=O,56.2

# System: SF-539
# Test: In vitro growth inhibition against CNS cancer SF-539 cell line was reported.
# Type: functional
# Settings: Homo sapiens
row,Structure (SMILES),GI50 [µM]
1,O=C(Nc1nccs1)c1cc2c(cc1Cl)Sc1nccn1S2(=O)=O,19.5

# System: HCC 2998
# Test: Log of molar concentration leading to 50% cell death against colon cancer HCC2998 cell line was reported
# Type: functional
# Settings: Homo sapiens, read-out: Log LC50 (the source's name) (converted)
row,Structure (SMILES),CC50 [µM]
1,O=C(Nc1nccs1)c1cc2c(cc1Cl)Sc1nccn1S2(=O)=O,53.7

# System: CAKI-1
# Test: In vitro growth inhibition against renal cancer CAKI-1 cell line was reported.
# Type: functional
# Settings: Homo sapiens
row,Structure (SMILES),GI50 [µM]
1,O=C(Nc1nccs1)c1cc2c(cc1Cl)Sc1nccn1S2(=O)=O,8.51

# System: MDA-N
# Test: In vitro total growth inhibition against breast cancer MDA-N cell lines was reported.
# Type: functional
# Settings: Homo sapiens, read-out: Log TGI (converted)
row,Structure (SMILES),TGI [µM]
1,O=C(Nc1nccs1)c1cc2c(cc1Cl)Sc1nccn1S2(=O)=O,33.1

# System: SK-MEL-28
# Test: In vitro growth inhibition against melanoma SK-MEL-28 cell line was reported.
# Type: functional
# Settings: Homo sapiens
row,Structure (SMILES),GI50 [µM]
1,O=C(Nc1nccs1)c1cc2c(cc1Cl)Sc1nccn1S2(=O)=O,20

# System: SK-MEL-5
# Test: In vitro growth inhibition against melanoma SK-MEL-5 cell line was reported.
# Type: functional
# Settings: Homo sapiens
row,Structure (SMILES),GI50 [µM]
1,O=C(Nc1nccs1)c1cc2c(cc1Cl)Sc1nccn1S2(=O)=O,16.6

# System: SK-MEL-5
# Test: In vitro total growth inhibition against melanoma SK-MEL-5 cell lines was reported.
# Type: functional
# Settings: Homo sapiens, read-out: Log TGI (converted)
row,Structure (SMILES),TGI [µM]
1,O=C(Nc1nccs1)c1cc2c(cc1Cl)Sc1nccn1S2(=O)=O,30.2

# Reference: ChEMBL document CHEMBL1135808, “A new type of mixed anhydride and its applications to the synthesis of 7-substituted 8-chloro-5,5-dioxoimidazo[1,2-b][1,4,2]benzodithiazines with in vitro antitumor activity” (2002)
